Where two headings read alike, the source gives them in different places.
Columns and labels:
222 human kinases = test: Millipore kinase profiling (radioactive filter binding activity assay at [ATP] = KM,ATP) and selectivity metrics calculated from it; type: biochemical; parameters: selectivity score: scale not given here; details: for Ka-Gini score / Pmax / S10x / selectivity score: calculated from Millipore activity data; for selectivity entropy: calculated from Millipore activity data (pEC50), [ATP] = KM,ATP
Text: As a next step we selected 16 compounds from the public profile (Ambit), and measured activity data on these using a different profiling service (Millipore, data available as Additional file 2). […] Also for these new data, we calculated the selectivity metrics (Uitdehaag_S2). In the ideal case, the selectivity values are similar irrespective of profiling technology (in the same way that a Kd value is ideally independent of laboratory and assay format). The data of both methods are plotted in Figure 2.
(§1) It is worth to note that the partition coefficient is the same as ϕl in our entropy equation (eq. 2).
The Gini score was calculated from data on %-inhibition. […] In addition, to work more directly with Kds, we also introduce a Ka-Gini score, in which association constants are used for rank-ordering the kinase profile. […] All calculations were done in Microsoft Excel.
For comparing profiles across methods (Figure 2), we selected 16 kinase inhibitors of the Ambit profile (Table 2) and submitted these to the kinase profiling service from Millipore (http://www.millipore.com/drugdiscovery/svp3/kpservices, data available as Additional file 2). Both profiling methods are described earlier and differ (among other variations) in the following way: Ambit uses a competitive binding setup in absence of ATP on kinases from T7 or HEK293 expression systems. Millipore uses a radioactive filter binding activity assay, with kinases purified from Escherichia coli or baculovirus expression systems.

[1] = test system: 290 kinases (excluding mutants); type: binding; details: for Ka-Gini: Gini score calculated directly on Kas of the Ambit dataset (Kds of ref 5); for entropies (selectivity entropy, Ssel): calculated from Kds of the Ambit dataset (ref 5)
Text: Having defined the entropy, we next investigated its performance relative to the most widely-used methods, on a public profiling dataset of 38 inhibitors on 290 non-mutant kinases (Table 1 and Additional file 1). […] To this we added a Ka-Gini value and the selectivity entropy. The Ka-Gini is a Gini score directly calculated on Kas, without reverting to %-inhibition values (see below). […] In addition, to get an overview of the profiling raw data, we appended an activity-based heat map (Uitdehaag_S1).
as §1
The Gini score was calculated from data on %-inhibition. […] In addition, to work more directly with Kds, we also introduce a Ka-Gini score, in which association constants are used for rank-ordering the kinase profile. […] All calculations were done in Microsoft Excel. […]

[2] = test system: 290 kinases (excluding mutants); details: cited from earlier work
[3] = Ambit dataset, 38 inhibitors on 290 non-mutant kinases, values taken from earlier work
[4] = Ambit dataset, fraction of kinases hit at 10 times the Kd of the target, values taken from earlier work
[5] = Ambit dataset, fraction of kinases hit below 3 μM, values taken from earlier work
[6] = Ambit dataset, values taken from earlier work
[7] = rank among 38 inhibitors, Ambit dataset

Structure (SMILES) | Ka-Gini score (222 human kinases) | Pmax (222 human kinases) | S10x (222 human kinases) | Ka-Gini [1] | entropies (selectivity entropy, Ssel) ([1]; 290 kinases) | Gini [2, 3] | S10x [2, 4] | Pmax (partition index) [2, 6] | also measured
Cc1ccc(F)c(NC(=O)Nc2ccc(-c3cccc4[nH]nc(N)c34)cc2)c1 [ABT-869, linifanib] | 0.968 | 0.132 | 0.025 | 0.98 | 1.93 | 0.82 | 0.01 | 0.32 | selectivity score (222 human kinases): 0.235; selectivity entropy (222 human kinases): 2.834; S3uM (selectivity score S(3 μM)) [2, 5]: 0.16
CC1(C)CNc2cc(NC(=O)c3cccnc3NCc3ccncc3)ccc21 [AMG-706] |  |  |  | 0.97 | 2.36 | 0.82 | 0.04 | 0.22 | S3uM (selectivity score S(3 μM)) [2]: 0.09
CCN1CCN(Cc2ccc(NC(=O)Nc3ccc(Oc4cc(NC)ncn4)cc3)cc2C(F)(F)F)CC1 [AST-487] |  |  |  | 0.95 | 2.74 | 0.73 | 0.04 | 0.11 | S3uM (selectivity score S(3 μM)) [2, 5]: 0.45
CCN(CCO)CCCOc1ccc2c(Nc3cc(CC(=O)Nc4cccc(F)c4)[nH]n3)ncnc2c1 [AZD1152HQPA] | 0.993 | 0.603 | 0.007 | 0.98 | 1.91 | 0.78 | 0.02 | 0.34 | selectivity score (222 human kinases): 0.041; selectivity entropy (222 human kinases): 1.366; S3uM (selectivity score S(3 μM)) [2, 5]: 0.10
Cn1cnc2c(F)c(Nc3ccc(Br)cc3Cl)c(C(=O)NOCCO)cc21 [AZD6244] | 1.000 | 0.999 | 0.002 |  |  |  |  |  | selectivity entropy (222 human kinases): 0.020
Cc1ccc(-n2nc(C(C)(C)C)cc2NC(=O)Nc2ccc(OCCN3CCOCC3)c3ccccc23)cc1 [BIRB-796, doramapimod] | 0.984 | 0.440 | 0.011 | 0.99 |  | 0.81 |  |  | 
Cn1c(Nc2ccc(C(F)(F)F)cc2)nc2cc(Oc3ccnc(-c4ncc(C(F)(F)F)[nH]4)c3)ccc21 [CHIR265] | 0.982 | 0.304 | 0.014 | 0.96 |  | 0.74 |  |  | 
CN1CCN(c2ccc3nc(-c4c(N)c5c(F)cccc5[nH]c4=O)[nH]c3c2)CC1 [CHIR-258] |  |  |  | 0.97 |  | 0.76 | 0.01 |  | 
C=CC(=O)Nc1cc2c(Nc3ccc(F)c(Cl)c3)ncnc2cc1OCCCN1CCOCC1 [CI-1033] |  |  |  | 0.99 |  | 0.72 |  |  | 
C[C@@H]1CCN(C(=O)CC#N)C[C@@H]1N(C)c1ncnc2[nH]ccc12 [CP-690550, tasocitinib] | 0.995 | 0.481 | 0.005 |  |  | 0.66 |  |  | 
COCC(=O)NC/C=C/c1ccc2ncnc(Nc3ccc(Oc4ccc(C)nc4)c(C)c3)c2c1 [CP-724714] |  |  |  | 0.99 | 1.10 | 0.49 | 0.01 | 0.33 | S3uM (selectivity score S(3 μM)) [2, 5]: 0.02
Cc1nc(Nc2ncc(C(=O)Nc3c(C)cccc3Cl)s2)cc(N2CCN(CCO)CC2)n1 [Dasatinib, dasatinib] | 0.943 | 0.041 | 0.070 | 0.93 |  | 0.79 |  |  | 
CCOc1cc2ncc(C#N)c(Nc3ccc(F)c(Cl)c3)c2cc1NC(=O)/C=C/CN(C)C [EKB-569] |  |  |  | 0.99 | 0.89 | 0.78 | 0.00 | 0.67 | S3uM (selectivity score S(3 μM)) [2, 5]: 0.18
C#Cc1cccc(Nc2ncnc3cc(OCCOC)c(OCCOC)cc23)c1 [Erlotinib] |  |  |  | 0.99 | 0.88 | 0.75 | 0.00 | 0.67 | S3uM (selectivity score S(3 μM)) [2]: 0.15
CN1CC[C@H](c2c(O)cc(O)c3c(=O)cc(-c4ccccc4Cl)oc23)[C@H](O)C1 [Flavopiridol] |  |  |  | 0.95 |  | 0.77 |  |  | 
COc1ccc(COc2ccc(Cc3cnc(N)nc3N)cc2OC)cc1 [GW-2580] |  |  |  | 0.99 | 0.26 | 0.54 | 0.00 | 0.92 | S3uM (selectivity score S(3 μM)) [2, 5]: 0.01

Structure (SMILES) | Ka-Gini score (222 human kinases) | Pmax (222 human kinases) | S10x (222 human kinases) | Ka-Gini [1] | entropies (selectivity entropy, Ssel) ([1]; 290 kinases) | Gini [2, 3] | S10x [2, 4] | Pmax (partition index) [2, 6] | also measured
Cc1ccc(Nc2nccc(N(C)c3ccc4c(C)n(C)nc4c3)n2)cc1S(N)(=O)=O [GW-786034] |  |  |  | 0.97 | 2.06 | 0.80 | 0.02 | 0.33 | S3uM (selectivity score S(3 μM)) [2, 5]: 0.21
COc1cc2ncnc(Nc3ccc(F)c(Cl)c3)c2cc1OCCCN1CCOCC1 [Gefitinib] |  |  |  |  |  | 0.65 |  |  | 
Cc1ccc(NC(=O)c2ccc(CN3CCN(C)CC3)cc2)cc1Nc1nccc(-c2cccnc2)n1 [Imatinib, imatinib] |  |  |  |  |  |  |  |  | Gini [2]: 0.79; S10x [2]: 0.02
Nc1nc(Nc2ccc(S(N)(=O)=O)cc2)nn1C(=O)c1c(F)cccc1F [JNJ-7706621] |  |  |  | 0.87 | 3.73 | 0.74 | 0.08 | 0.10 | S3uM (selectivity score S(3 μM)) [2]: 0.37
CN(C)C[C@@H]1CCn2cc(c3ccccc32)C2=C(C(=O)NC2=O)c2cn(c3ccccc23)CCO1 [LY-333531] |  |  |  | 0.98 |  | 0.76 |  |  | 
CS(=O)(=O)CCNCc1ccc(-c2ccc3ncnc(Nc4ccc(OCc5cccc(F)c5)c(Cl)c4)c3c2)o1 [Lapatinib] |  |  |  | 0.99 |  | 0.57 |  |  | 
O=C(NOC[C@H](O)CO)c1ccc(F)c(F)c1Nc1ccc(I)cc1F [PD-0325901] | 1.000 | 0.857 | 0.002 |  |  |  |  |  | selectivity score (222 human kinases): 0.005; selectivity entropy (222 human kinases): 0.550
CO[C@@H]1[C@H](N(C)C(=O)c2ccccc2)C[C@H]2O[C@]1(C)n1c3ccccc3c3c4c(c5c6ccccc6n2c5c31)C(=O)NC4 [PKC-412] |  |  |  | 0.88 |  | 0.71 |  |  | 
Clc1ccc(Nc2nnc(Cc3ccncc3)c3ccccc23)cc1 [PTK-787] |  |  |  |  |  |  |  |  | Gini [2]: 0.71
Oc1ccc(-c2nc(-c3ccncc3)c(-c3ccc(F)cc3)[nH]2)cc1 [SB-202190] |  |  |  | 0.97 | 2.08 | 0.76 | 0.02 | 0.35 | S3uM (selectivity score S(3 μM)) [2]: 0.09
C[S+]([O-])c1ccc(-c2nc(-c3ccncc3)c(-c3ccc(F)cc3)[nH]2)cc1 (stereo not shown) [SB-203580] | 0.987 | 0.342 | 0.016 |  |  | 0.77 | 0.02 |  | 
NC(=O)c1ccc(-c2nc(-c3ccc4c(c3)OCO4)c(-c3ccccn3)[nH]2)cc1 [SB-431542] |  |  |  | 0.98 | 1.56 | 0.42 | 0.01 | 0.14 | number of kinases inhibited below 3 μM ([1]; Ambit profile, 290 kinases): 5 kinases; selectivity rank by Ka-Gini [1, 7]: 15; selectivity rank by Pmax [1, 7]: 31; selectivity rank by selectivity entropy [1, 7]: 14; S3uM (selectivity score S(3 μM)) [2, 5]: 0.02; IC50 ([2]; Ambit profile, four kinases not named, read-out: IC50s on the four kinases hit with very similar IC50s): 100 to 300 nM
CC(C)(C)c1cnc(CSc2cnc(NC(=O)C3CCNCC3)s2)o1 [SNS-032] |  |  |  | 0.97 |  |  |  |  | 
CN[C@@H]1C[C@H]2O[C@@](C)([C@@H]1OC)n1c3ccccc3c3c4c(c5c6ccccc6n2c5c31)C(=O)NC4 [Staurosporine] |  |  |  |  |  | 0.35 | 0.50 |  | 
Cc1cn(-c2cc(NC(=O)c3ccc(C)c(Nc4nccc(-c5cccnc5)n4)c3)cc(C(F)(F)F)c2)cn1 [nilotinib] | 0.980 | 0.208 | 0.027 |  |  |  |  |  | selectivity score (222 human kinases): 0.095; selectivity entropy (222 human kinases): 2.360

— paper PMC3100252, “A theoretical entropy score as a single value to express inhibitor selectivity” (BMC Bioinformatics, 2011)
